Legend:
[1] = biological target: sterol-24-methyl transferase (Candida albicans, UniProt O74198); type: biochemical; conditions: in vitro, read-out: Relative Activity (IC50 class)
From the text: Moreover, the relative activity for sterol-24-methyl transferase of the above compound in Table 11 is described in Table 13.

[2] = tested on: Candida albicans(KCTC 1940), Aspergillus niger (ATCC 9642) and Saccharomyces cerevisiae; test: Relative antifungal activity by agar dilution method (vs Miconazole); type: cell-based;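 note: scores 5 to 7 mean a lower fungicidal concentration than Miconazole so higher is more potent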
From the text: Novel compounds represented by the above chemical formula (I), and the relative activities in accordance with the agar dilution method in Sabouraud dextrose agar media, Czapek agar media and Yeast Extract-Peptone-Dextrose agar media for Candida albicans(KCTC 1940), Aspergillus niger (ATCC 9642) and Saccharomyces cerevisiae are described respectively in following Table 1.

various kinds of Candida = test: MIC (Minimal Inhibitory Concentration) data; type: cell-based; conditions: unit assumed

Sequence of sterol-24-methyl transferase (O74198 whole entry): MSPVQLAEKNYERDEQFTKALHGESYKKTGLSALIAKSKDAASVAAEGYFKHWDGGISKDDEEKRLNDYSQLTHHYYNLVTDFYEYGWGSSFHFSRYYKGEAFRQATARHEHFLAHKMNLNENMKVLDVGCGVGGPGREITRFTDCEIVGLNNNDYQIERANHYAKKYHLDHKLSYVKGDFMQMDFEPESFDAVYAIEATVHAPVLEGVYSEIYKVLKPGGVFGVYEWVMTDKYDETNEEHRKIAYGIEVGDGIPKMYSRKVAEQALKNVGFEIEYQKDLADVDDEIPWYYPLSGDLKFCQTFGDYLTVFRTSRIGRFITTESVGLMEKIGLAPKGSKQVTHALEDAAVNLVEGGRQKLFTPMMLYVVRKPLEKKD

CCCCCCCCCCCC1=[N+](Cc2ccc(N)cc2)CCc2cc(OC)c(OC)cc21.Cl.[Cl-] [Compound No. 121, 3,4-dihydro-6,7-dimethoxy-2-(4-ammoniumphenyl)methyl-1-undecylisoquinolinium dichloride]
IC50 [1]: 5 to 50 µM | Relative Activity ([2]; agar dilution method, fungicidal concentration relative to control drug Miconazole (=4)): 2 | MIC (various kinds of Candida; C. albicans ATCC 11651): 3.12 µg/mL | MIC (various kinds of Candida; C. albicans ATCC 28838): 0.78 µg/mL | MIC (various kinds of Candida; C. albicans IFO 1385): 1.56 µg/mL | MIC (various kinds of Candida; C. albicans OY-003): 3.12 µg/mL | MIC (various kinds of Candida; C. albicans OY-019): 3.12 µg/mL | MIC (various kinds of Candida; C. albicans U.K): 3.12 µg/mL | MIC (various kinds of Candida; C. glabrata): 1.56 µg/mL | MIC (various kinds of Candida; C. glulliermondi): 0.78 µg/mL | MIC (various kinds of Candida; C. krusei (KCTC7273)): 1.56 µg/mL | MIC (various kinds of Candida; C. parapsilosis): 1.56 µg/mL

COc1cc2cc[n+](Cc3cccc(OC)c3OCc3c(F)c(F)c(C(F)(F)F)c(F)c3F)c(CCc3ccc(C(C)(C)C)cc3)c2cc1OC.[Cl-] [Compound No. 151, 1-(2-(4-t-butylphenyl))ethyl-2-(2-(2,3,5,6-tetrafluoro-4-trifluoromethylbenzyloxy)-3-methoxyphenyl)methyl-6,7-dimethoxyisoquinolinium chloride]
IC50 [1]: < 5 µM | Relative Activity ([2]; antifungal activity relative to Miconazole, agar dilution): 1 | MIC (various kinds of Candida; C. albicans ATCC 11651): 3.12 µg/mL | MIC (various kinds of Candida; C. albicans ATCC 28838): 3.12 µg/mL | MIC (various kinds of Candida; C. albicans IFO 1385): 6.25 µg/mL | MIC (various kinds of Candida; C. albicans OY-003): 1.56 µg/mL | MIC (various kinds of Candida; C. albicans OY-019): 3.12 µg/mL | MIC (various kinds of Candida; C. albicans U.K): 1.56 µg/mL | MIC (various kinds of Candida; C. glabrata): 3.25 µg/mL | MIC (various kinds of Candida; C. glulliermondi): 1.56 µg/mL | MIC (various kinds of Candida; C. krusei (KCTC7273)): 1.56 µg/mL | MIC (various kinds of Candida; C. parapsilosis): 12.5 µg/mL
